Test results as given in US11299493B2, “Heterocyclic compounds and uses thereof” (NUVATION BIO INC., priority 2017, dated 2022).

Key:
A427 cells = assay: Cytotoxicity assay (resazurin) in A427 cells; format: cell-based; details: Homo sapiens, A-427, 72 h, A427, 72 hr, read-out: Cell Viability IC50 A427
Experimental: Cells were allowed to grow at 37° C. for 24 hr in 5% CO2 environment (culture conditions) in a Nuaire incubator (humidified). Serially diluted test compounds (100 μL) within the desired testing concentration ranges were added to the culture plate were further incubated in culture conditions for 72 hr and 96 hr for A427 and A549 respectively. The experiment was terminated at the designated incubation time by replacing the medium with 100 μL of 1 mM of resazurin (R7017; Sigma) prepared in respective culture medium, and the plates were further incubated in culture conditions for 4-6 hr. Fluorescence was recorded using a multimodal plate reader (Biotek Synergy Neo) at an excitation wavelength of 535 nm and emission wavelength of 590 nm to obtain relative fluorescence units. Data analysis was done by subtracting the background fluorescence (only medium blank) value from each reading and then normalizing with the vehicle control (DMSO treated cells) to obtain percent survival/proliferation. Percent survival was then subtracted by 100 to get the percent inhibition of proliferation which was used to calculate IC50 values.

WEE1 kinase enzyme = WEE1 kinase enzyme (Homo sapiens (Human), UniProt P30291); assay: WEE1 IC50 determination, LanthaScreen Terbium Labeled TR-FRET kinase assay; format: biochemical; details: WEE1 enzyme 1 nM, ATP 10 μM, 1 h
Chain of WEE1 kinase enzyme (P30291 whole entry): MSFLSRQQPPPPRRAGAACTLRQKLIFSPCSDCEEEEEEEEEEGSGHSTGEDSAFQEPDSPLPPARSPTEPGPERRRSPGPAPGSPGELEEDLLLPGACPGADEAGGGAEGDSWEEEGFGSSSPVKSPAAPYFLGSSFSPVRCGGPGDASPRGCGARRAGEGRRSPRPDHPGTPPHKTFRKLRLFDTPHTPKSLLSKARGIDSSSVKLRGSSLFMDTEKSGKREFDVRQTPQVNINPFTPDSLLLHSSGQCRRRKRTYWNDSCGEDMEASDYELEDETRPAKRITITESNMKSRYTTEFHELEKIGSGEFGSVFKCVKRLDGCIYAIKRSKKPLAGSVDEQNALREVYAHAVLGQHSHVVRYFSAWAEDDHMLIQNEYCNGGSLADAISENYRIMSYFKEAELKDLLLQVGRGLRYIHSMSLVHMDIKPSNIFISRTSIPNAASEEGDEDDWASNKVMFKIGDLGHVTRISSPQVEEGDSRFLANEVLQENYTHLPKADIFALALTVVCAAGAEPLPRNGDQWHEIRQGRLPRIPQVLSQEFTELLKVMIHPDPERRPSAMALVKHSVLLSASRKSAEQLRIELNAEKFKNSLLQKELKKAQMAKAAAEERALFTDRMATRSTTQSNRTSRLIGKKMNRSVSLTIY
Experimental: IC50 values of compounds against WEE1 kinase enzyme were determined by LanthaScreen™ Terbium Labeled TR-FRET assay. […] After 1 h, […] stop solution containing Terbium labeled antibody (4 nM) (#PV3529, Invitrogen, Life Technologies Grand Island, N.Y.) and EDTA (#E5134, Sigma, St-Louis, Mo.) (20 mM) in TR-FRET dilution buffer (#PV3574, Invitrogen, Life Technologies Grand Island, N.Y.) was added. Readings were taken in a Synergy Neo Plate reader (BioTek, Winooski) at single excitation of 340 nm and Dual emission at 495 nm and 520 nm respectively.
The % activity of test samples was calculated as (Sample−Min)*100/(Max−Min). [Max: DMSO control, complete reaction with enzyme & DMSO and Min: No enzyme & DMSO].

Compound | IC50 (A427 cells) [nM] | IC50 (WEE1 kinase enzyme) [nM]
CC(C)n1c(=O)c2cnc(Nc3ccc4c(c3)CNCC4)nc2n1-c1ccnc(C(C)(C)F)c1 [Example 1.169] | 2740 | 16
CC(C)n1c(=O)c2cnc(Nc3ccc4c(c3)NCCC4)nc2n1-c1ccnc(C(C)(C)F)c1 [Example 1.168] | 4000 | 4150
CC(C)n1c(=O)c2cnc(Nc3ccc4c(c3)CNCC4)nc2n1-c1cccc(C2CC2)n1 [Example 1.148] | 1080 | 2
CCn1c(=O)c2cnc(Nc3ccc4c(c3)CNC4)nc2n1-c1cccc(C(C)(C)C)n1 [Example 1.142] | 390 | 4
CC(C)n1c(=O)c2cnc(Nc3ccc4c(c3)CCNC4)nc2n1-c1cccc(N(C)S(C)(=O)=O)n1 [Example 2.645] | 4010 | 5
CC(C)(C)c1cccc(-n2c3nc(Nc4ccc5c(c4)CNCC5)ncc3c(=O)n2C(C)(C)C)n1 [Example 1.151] | 3380 | 2540
CC(C)n1c(=O)c2cnc(Nc3ccc4c(c3)CCNC4)nc2n1-c1ccn(C(C)(C)C)n1 [Example 2.454] | – | 48
CCn1c(=O)c2cnc(Nc3ccc4c(c3)CNCC4)nc2n1-c1ccnc(C(C)(C)C)c1 [Example 1.134] | 820 | 9
CC(C)(F)c1cc(-n2c3nc(Nc4ccc5c(c4)CNCC5(C)C)ncc3c(=O)n2C2CC2)ccn1 [Example 2.605] | 5960 | 123
CC(C)n1c(=O)c2cnc(Nc3ccc4c(c3)CCNC4(C)C)nc2n1-c1ccn(C2CC2)n1 [Example 2.643] | 2180 | 26
CCn1c(=O)c2cnc(Nc3cnc4c(c3)CNCC4)nc2n1-c1cccc(C(C)(C)O)n1 [Example 1.127] | > 23000 | 58
CC(C)n1c(=O)c2cnc(Nc3ccc4c(c3)CNCC43CC3)nc2n1-c1ccnc(C(C)(C)C)c1 [Example 1.161] | 240 | 4
CC(C)n1c(=O)c2cnc(Nc3ccc4c(c3)CNCC4)nc2n1-c1ccn(C)n1 [Example 2.292] | 13300 | 43
CC(C)n1c(=O)c2cnc(Nc3ccc4c(c3)CCNC4)nc2n1-c1cccc(C2CC2)n1 [Example 1.149] | 1130 | 3
CC(C)n1c(=O)c2cnc(Nc3ccc4c(c3)CCN(C)C4)nc2n1-c1ccnc(C(C)(C)C)c1 [Example 2.644] | 2330 | 5
CCn1c(=O)c2cnc(Nc3ccc4c(c3)CCNC4)nc2n1-c1ccnc(C(C)(C)C)c1 [Example 1.136] | 1090 | 7
C=CCn1c(=O)c2cnc(Nc3ccc4c(c3)CCNC4)nc2n1-c1ccnc(C(C)(C)C)c1 [Example 1.157] | 460 | 5
CC(C)n1c(=O)c2cnc(Nc3ccc4c(c3)CCNC4)nc2n1-c1cccc(C(C)(C)C)n1 [Example 1.145] | 255 | 3
CC(C)n1c(=O)c2cnc(Nc3ccc4c(c3)CCNC4)nc2n1-c1ccc(F)cc1 [Example 1.166] | 4130 | 29
CC(C)n1c(=O)c2cnc(Nc3ccc4c(c3)CNCC4)nc2n1-c1cccc(C(C)(C)C#N)n1 [Example 3.035] | 420 | 2
CC(n1c(=O)c2cnc(Nc3ccc4c(c3)CNCC4)nc2n1-c1cccc(C(C)(C)C)n1)C(F)(F)F (centres unmarked) [Example 1.150] | 3000 | 13
CC(C)n1c(=O)c2cnc(Nc3ccc4c(c3)CNCC4)nc2n1-c1ccn(C2CC2)n1 [Example 2.189] | 1990 | 43
COCCn1c(=O)c2cnc(Nc3ccc4c(c3)CNCC4)nc2n1-c1cccc(C(C)(C)C)n1 [Example 1.154] | 2370 | 8
CC(C)n1c(=O)c2cnc(Nc3ccc4c(c3)CNCC4)nc2n1-c1cc(C(C)(C)C)ccn1 [Example 2.287] | 1960 | 120
CC(C)n1c(=O)c2cnc(Nc3ccc4c(c3)CNC4)nc2n1-c1ccnc(C(C)(C)C)c1 [Example 1.165] | 1570 | 14
CCn1c(=O)c2cnc(Nc3ccc4c(c3)CNCC4)nc2n1-c1cccc(NC)n1 [Example 1.27] | 4140 | 10
CC(C)n1c(=O)c2cnc(Nc3ccc4c(c3)CCNC4(C)C)nc2n1-c1ccnc(C(C)(C)F)c1 [Example 2.187] | 435 | 12

Compound | IC50 (A427 cells) [nM] | IC50 (WEE1 kinase enzyme) [nM]
CC(C)n1c(=O)c2cnc(Nc3ccc4c(c3)CNCC4)nc2n1-c1ccc(F)cc1 [Example 1.167] | 2060 | 41
CCn1c(=O)c2cnc(Nc3ccc4c(c3)CN(CCO)CC4)nc2n1-c1cccc(C(C)(C)O)n1 [Example 1.128] | 1550 | 6
CC(C)n1c(=O)c2cnc(Nc3ccc4c(c3)CNCC4)nc2n1-c1cccc(C(C)(C)C)n1 [Example 1.144] | 260 | 0.6
CC(C)n1c(=O)c2cnc(Nc3ccc4c(c3)CCC(N(C)C)C4)nc2n1-c1ccnc(C(C)(C)C)c1 (centres unmarked) [Example 1.170, 1-(2-tert-butylpyridin-4-yl)-6-{[6-(dimethylamino)-5,6,7,8-tetrahydronaphthalen-2-yl]amino}-2-(propan-2-yl)-1H,2H,3H-pyrazolo[3,4-d]pyrimidin-3-one] | 775 | 12
CCn1c(=O)c2cnc(Nc3ccc4c(c3)CNCC4)nc2n1-c1cccc(C(=O)NC)n1 [Example 1.25] | > 30000 | 99
CC(C)n1c(=O)c2cnc(Nc3ccc4c(c3)CNCC4)nc2n1-c1ccc(F)c(C(C)(C)O)c1 [Example 2.186] | 905 | 24
CCn1c(=O)c2cnc(Nc3ccc4c(c3)CNCC4)nc2n1-c1cccc(OC)n1 [Example 1.18] | 7060 | 25
CCn1c(=O)c2cnc(Nc3ccc4c(c3)CC(N(C)C)CC4)nc2n1-c1cccc(C(C)(C)O)n1 (centres unmarked) [Example 1.135] | 440 | 20
CC(C)(F)c1cc(-n2c3nc(Nc4ccc5c(c4)CCNC5(C)C)ncc3c(=O)n2C2CC2)ccn1 [Example 2.555] | – | 153
CCn1c(=O)c2cnc(Nc3ccc4c(c3)CNCC4)nc2n1-c1cccc(NC(C)=O)n1 [Example 1.47] | 3020 | 5
CC(C)n1c(=O)c2cnc(Nc3ccc4c(c3)CNCC4)nc2n1-c1ccnc(C(C)(C)C)c1 [Example 1.137] | 415 | 4
CC(C)n1c(=O)c2cnc(Nc3ccc4c(c3)CCNC4)nc2n1-c1cccc(C(C)(C)C)c1 [Example 1.155] | 1980 | 2
CC(C)(C)c1cccc(-n2c3nc(Nc4ccc5c(c4)CNCC5)ncc3c(=O)n2CC(F)(F)F)n1 [Example 1.152] | 1020 | < 1
CC(C)n1c(=O)c2cnc(Nc3ccc4c(c3)CCNC4)nc2n1-c1ccc(F)cn1 [Example 2.290] | 3370 | 90
CC(C)n1c(=O)c2cnc(Nc3ccc4c(c3)CCNC4)nc2n1-c1ccnc(C(C)(C)O)c1 [Example 1.178] | 6200 | 14
CC(C)(C)c1cc(-n2c3nc(Nc4ccc5c(c4)CNCC5(C)C)ncc3c(=O)n2C2CC2)ccn1 [Example 2.600] | – | 25
CCn1c(=O)c2cnc(Nc3ccc4c(c3)CNCC4)nc2n1-c1cccc(C(C)(C)C)n1 [Example 1.126] | 275 | < 1
CC(C)n1c(=O)c2cnc(Nc3ccc4c(c3)CCNC4(C)C)nc2n1-c1cccc(N(C)S(C)(=O)=O)n1 [Example 2.642] | 2460 | 6
CC(C)n1c(=O)c2cnc(Nc3ccc4c(c3)CCNC4)nc2n1-c1ccc(F)c(C(C)(C)O)c1 [Example 2.185] | 1540 | 34
CCn1c(=O)c2cnc(Nc3cccc4c3CCNC4)nc2n1-c1cccc(C(C)(C)O)n1 [Example 1.125] | > 30000 | > 5000
CC(C)n1c(=O)c2cnc(Nc3ccc4c(c3)CCNC4)nc2n1-c1ccc(N(C)C)c(C(C)(C)C)c1 [Example 1.175] | 1160 | 156
CC(C)(O)c1cccc(-n2c3nc(Nc4ccc5c(c4)CCNC5)ncc3c(=O)n2C2CC2)n1 [Example 1.24] | 6030 | 23
CC(CO)n1c(=O)c2cnc(Nc3ccc4c(c3)CNCC4)nc2n1-c1cccc(C(C)(C)C)n1 (centres unmarked) [Example 1.153] | 2540 | 16
CC(C)n1c(=O)c2cnc(Nc3ccc4c(c3)CNCC4(C)C)nc2n1-c1ccnc(C(C)(C)C)c1 [Example 1.162] | 385 | 11
CC(C)n1c(=O)c2cnc(Nc3ccc4c(c3)CCNC4)cc2n1-c1ccnc(C(C)(C)C)c1 [Example 2.732] | – | 179
CC(C)n1c(=O)c2cnc(Nc3ccc4c(c3)CNCC4)cc2n1-c1ccnc(C(C)(C)C)c1 [Example 2.744] | 10400 | –
